From US11986464B2, “5HT3R antagonist for use in treating aneurysms and cardiovascular risk” (University of Kentucky Research Foundation, priority 2021, dated 2024)

Key:
[1] = tested on: AngII-infused XYM Ldlr−/− mice; assay: Systolic and diastolic blood pressure induced by AngII; type: in vivo; details: for mean systolic blood pressure: ±SEM
Method: (§1) Male mice (XYM Ldlr−/−) were fed a Western diet (high fat, high sucrose, high cholesterol) beginning one week prior to the start of treatments. XYM Ldlr−/− mice were then administered two different doses of Trop (10 or 20 mg/kg/day) by osmotic minipump for 7 days. The minipumps were then replaced with new pumps containing both AngII (1,000 ng/kg/min) and Trop and treatment was continued for 28 days.
Blood pressures were taken on five consecutive days. Measurements from the last three days were used to calculate blood pressures for each group. The mean systolic blood pressures are in mm Hg (±SEM): AngII=149±3.4; Trop 10=146±5.6; Trop 20=128±4.4. The mean diastolic blood pressures were in mm Hg: AngII=86±4.0; Trop 10=83±6.0; Trop 20=70±4.1 (FIG. 21).

[2] = tested on: AngII-infused XYM Ldlr−/− mice; assay: Maximal external diameters of excised abdominal aortas; type: in vivo; details: ±SEM
Method: as §1, with “28 days. External abdominal aortic diameters were quantified on excised, cleaned tissue mounted on a black wax background. A Nikon SMZ800 dissecting microscope was used to obtain aorta images and the maximal external diameter of the abdominal aorta was measured using Nikon NIS-Elements Version 5.2.” for “28 days.”

[3] = tested on: AngII-infused XY male Ldlr−/− mice (XYM); assay: AngII-induced aortic pathology (DTA, AA) and aortic weights; type: in vivo; details: for mean weight of the aortas: 7 days then 28 days with AngII 1,000 ng/kg/min, ±SEM
Method: Tropisetron (Trop) is an exemplary 5HT3R antagonist used in these studies.^136 Effects of Trop were tested against AngII-induced aortic pathology in XY male Ldlr−/− mice (XYM). […] Mice were fed a Western diet (high fat, high sucrose, high cholesterol) beginning one week prior to the start of treatments. XYM Ldlr−/− mice were administered two different doses of Trop (10 or 20 mg/kg/day) by osmotic minipump for 7 days. The minipumps were then replaced with new pumps containing both AngII (1,000 ng/kg/min) and Trop and treatment was continued for 28 days. Aortas were removed from the iliac bifurcation to the end of the arch and fixed in formalin. Aortas were then cleaned and weighed.

[4] = tested on: AngII-infused XYM Ldlr−/− mice; assay: Atherosclerosis quantified en face (aortic arch, thoracic aorta); type: in vivo
Method: as §1
Atherosclerosis was quantified en face in the aortic arch. Briefly, the entire length of the aorta was removed and the intimal surface exposed, in its entirety, by a longitudinal cut through the inner curvature of the aortic arch and down the anterior aspect of the remaining aorta. A cut is also made through the greater curvature of the aortic arch to the subclavian branch. The tissue is then pinned to a dark surface. Arch areas were defined by drawing a 3-mm line from the left subclavian artery. The intimal area of the aortic arch was defined as the region from the orifice of innominate artery to the orifice of the left subclavian artery. Thoracic areas were defined by drawing a 9 mm line from the end of the arch area to the diaphragm muscle. Atherosclerotic areas were quantified by drawing a line around the borders and summing the total area of each. Lesions were summed and divided by the total arch or thoracic area to calculate the percent lesion area. Measurements were performed using Nikon NIS-Elements Version 5.2.

[5] = tested on: AngII-infused XYM Ldlr−/− mice; assay: Incidence and grading of AngII-induced abdominal aortic aneurysms; type: in vivo; details: for mice with Abdominal Aneurysm Grade 0: 0 = no aneurysm; for mice with Abdominal Aneurysm Grade 4: 4 being a rupture
Method: as §1

[6] = tested on: AngII-infused XYM Ldlr−/− mice; assay: Serum cholesterol and triglycerides by enzymatic assay kits; type: in vivo; details: in mg/dL (unit assumed)
Method: as §1, with “28 days. Concentrations of total serum cholesterol, triglycerides and free fatty acids were quantified (blood collected from cardiac puncture) using enzymatic assay kits.” for “28 days.”

[7] = tested on: AngII-infused XYM Ldlr−/− mice; assay: Ultrasound internal lumen diameters of abdominal aortas; type: in vivo; details: for average internal lumen diameter of abdominal aorta on Day 27: ultrasound, ±SEM, in mm (unit assumed)
Method: as §1
Internal lumen diameters of abdominal aortas from AngII treated mice treated with either dose of tropisetron were smaller than those from the AngII alone group after 27 days of treatment (FIG. 18). The average diameters on Day 27 were: AngII=1.77±0.35; Trop 10=1.32±0.23; Trop 20=1.20±0.28 (±SEM, *P<0.05 compared to AngII). The average diameters in all three groups increased from their baseline values with the AngII group having the largest increase followed by the Trop 20 and then Trop 10 group. […] An increase of 50% or more is considered an aneurysm.

[8] = tested on: AngII-infused XXF and XYM Ldlr−/− mice; details: nicotine 4 mg/kg/day co-infused with AngII 1,000 ng/kg/min
Method: (§2) Mice were fed a Western diet beginning one week prior to co-infusion of AngII (1,000 ng/kg/min) and nicotine (4 mg/kg/day^130). Ultrasound as used to quantify internal lumen diameters of AA to calculate the percentage of mice with pathology (50% increase compared to day 0 of infusions; FIG. 12A). […] Aortas were harvested for RNA extraction, and thus DTA maximal diameters could not be quantified at study endpoint.

Htr3a mRNA = details: nicotine co-infused with AngII, compared to AngII
Method: as §2
To define potential mechanisms for these effects, and whether they are linked to 5HT3R, Htr3a mRNA abundance was quantified in DTA and AA of XXF and XYM AngII-infused mice.

[9] = Trop 10 or 20 mg/kg/day, compared to AngII alone

With CN1[C@@H]2CC[C@H]1C[C@@H](OC(=O)c1c[nH]c3ccccc13)C2 [Trop] the “mean diastolic blood pressure” value ([1]; Trop 10 mg/kg/day) was 83±6.0 mm Hg, the “mean systolic blood pressure” value ([1]; Trop 10 mg/kg/day) was 146±5.6 mm Hg and the “mean diastolic blood pressure” value ([1]; Trop 20 mg/kg/day) was 70±4.1 mm Hg. For the same compound, the “mean systolic blood pressure” value ([1]; Trop 20 mg/kg/day) was 128±4.4 mm Hg, the “mean external diameter of abdominal aorta” value ([2]; Trop 10 mg/kg/day) was 1.08±0.13 mm and the “mean external diameter of abdominal aorta” value ([2]; Trop 20 mg/kg/day) was 0.87±0.11 mm. The “mean weight of the aortas” value ([3]; Trop 10 mg/kg/day by osmotic minipump) was 0.035 g, the “mean weight of the aortas” value ([3]; Trop 20 mg/kg/day by osmotic minipump) was 0.023 g and the “percentage of AngII-induced pathology of AA” value [3, 9] was “dose-dependent reduction”. The “percentage of AngII-induced pathology of DTA” value [3, 9] was “dose-dependent reduction”, the “atherosclerosis (percent lesion area) in the thoracic aortas” value ([4]; tropisetron 10 mg/kg/day) was 14.14±6.4% and the “percent lesion surface area of the aortic arch” value ([4]; tropisetron 10 mg/kg/day) was 14.92±5.3%. The “atherosclerosis (percent lesion area) in the thoracic aortas” value ([4]; tropisetron 20 mg/kg/day) was 7.43±7.95%, the “percent lesion surface area of the aortic arch” value ([4]; tropisetron 20 mg/kg/day) was 4.24±3.5% and the “% Incidence of abdominal aneurysms” value ([5]; Trop 10 mg/kg/day) was 30%. The “mice with Abdominal Aneurysm Grade 1” value ([5]; Trop 10 mg/kg/day) was 3, the “mice with Abdominal Aneurysm Grade 2” value ([5]; Trop 10 mg/kg/day) was 0 and the “mice with Abdominal Aneurysm Grade 3” value ([5]; Trop 10 mg/kg/day) was 0. For the same compound, the “mice with Abdominal Aneurysm Grade 0” value ([5]; Trop 10 mg/kg/day) was 7, the “mice with Abdominal Aneurysm Grade 4” value ([5]; Trop 10 mg/kg/day) was 0 and the “% Incidence of abdominal aneurysms” value ([5]; Trop 20 mg/kg/day) was 20%. The “mice with Abdominal Aneurysm Grade 1” value ([5]; Trop 20 mg/kg/day) was 0, the “mice with Abdominal Aneurysm Grade 2” value ([5]; Trop 20 mg/kg/day) was 1 and the “mice with Abdominal Aneurysm Grade 3” value ([5]; Trop 20 mg/kg/day) was 0. The “mice with Abdominal Aneurysm Grade 0” value ([5]; Trop 20 mg/kg/day) was 8, the “mice with Abdominal Aneurysm Grade 4” value ([5]; Trop 20 mg/kg/day) was 1 and the serum cholesterol level ([6]; Trop 10 mg/kg/day) was 1683±109.5. It also gave a serum triglyceride level ([6]; Trop 10 mg/kg/day) of 652±73.6, a serum cholesterol level ([6]; Trop 20 mg/kg/day) of 1437±46.7 and a serum triglyceride level ([6]; Trop 20 mg/kg/day) of 549±54.4. The “average internal lumen diameter of abdominal aorta on Day 27” value ([7]; Trop 10 mg/kg/day) was 1.32±0.23, the “percent increase in abdominal aorta diameters on Day 27 compared to Day 0” value ([7]; Trop 20 mg/kg/day, compared to AngII, P<0.05) was “significantly different” and the “average internal lumen diameter of abdominal aorta on Day 27” value ([7]; Trop 20 mg/kg/day) was 1.20±0.28.

CN1CCCC1c1cccnc1 (stereo not drawn) [nicotine] was tested, and the “percentage of mice with pathology within the AA (50% increase in internal lumen diameter compared to day 0)” value [8] was 50%, the “Htr3a mRNA abundance in AA” value (Htr3a mRNA; XXF and XYM mice) was “significant increase” and the “Htr3a mRNA abundance in DTA” value (Htr3a mRNA) was “no effect”.
